We go through eleven compounds from patent US8871753B2, “Macrocyclic compounds and their use as kinase inhibitors” (Incyte Corporation, priority 2008, dated 2014).

What all share (type): biochemical
The target in experiment [1] is T1, human JAK2 (a.a. 828-1132) (Homo sapiens, UniProt O60674).
T1 construct: JAK2 (a.a. 828-1132); His tag (N); made in house; host or cells: insect cells (baculovirus)
In words: In vitro JAK kinase assay (HTRF, phosphorylation of a biotinylated peptide), JAK2. The note with it: Table B1. A digest of the protocol: (§1)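 Phosphorylation of a biotinylated peptide by the JAK kinase domain, detected by HTRF with Eu-Py20 and SA-APC. ATP was 90 μM for JAK1, 30 μM for JAK2 and 3 μM for JAK3. Reactions ran 1 h at room temperature and were stopped with EDTA, followed by 40 min antibody binding.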
A general note: In TR-FRET formats the signal depends on donor and acceptor labels being close together.

Experiment [2] deals with T2, human JAK3 (a.a. 781-1124) (Homo sapiens, UniProt P52333).
T2 construct: JAK3 (a.a. 781-1124); His tag (N); made in house; host or cells: insect cells (baculovirus)
Kind of experiment: In vitro JAK kinase assay (HTRF, phosphorylation of a biotinylated peptide), JAK3. The settings on record: Table B1. A digest of the protocol: as §1

The next experiment concerns the target TYK2 (Homo sapiens, UniProt P29597). In words: TYK2 kinase inhibition (Table A1). The settings on record: Table B1.
For experiment [3], the target named is T3, human JAK1 (a.a. 837-1142) (Homo sapiens, UniProt P23458).
T3 construct: human JAK1 (a.a. 837-1142); His tag (N); made in house; host or cells: insect cells (baculovirus)
Kind of experiment: In vitro JAK kinase assay (HTRF, phosphorylation of a biotinylated peptide), JAK1. The note with it: Table B1; read-out: JAK1 IC50. In outline: as §1

Experiment [4] deals with T4, Recombinant Human Anaplastic Lymphoma Kinase (Homo sapiens, UniProt Q9UM73).
T4 construct: purchased Invitrogen, Carlsbad, Calif
Kind of experiment: ALK HTRF kinase assay. The settings on record: compound at a concentration of 500 nM or 1 mM (not specified); cells shown as percentage. In outline:
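Recombinant human ALK phosphorylated a biotinylated synthetic peptide. Phosphotyrosine was detected by TR-FRET between a Eu-labelled anti-phosphotyrosine antibody and streptavidin-allophycocyanin. IC50 values came from fitting signal against inhibitor concentration to a four-parameter logistic equation with variable Hill slope.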

The term IC50 denotes the point on the concentration scale where inhibition reaches its midpoint.

A value given as a limit tells only on which side of the number the result lay.

T1 sequence (O60674 828-1132): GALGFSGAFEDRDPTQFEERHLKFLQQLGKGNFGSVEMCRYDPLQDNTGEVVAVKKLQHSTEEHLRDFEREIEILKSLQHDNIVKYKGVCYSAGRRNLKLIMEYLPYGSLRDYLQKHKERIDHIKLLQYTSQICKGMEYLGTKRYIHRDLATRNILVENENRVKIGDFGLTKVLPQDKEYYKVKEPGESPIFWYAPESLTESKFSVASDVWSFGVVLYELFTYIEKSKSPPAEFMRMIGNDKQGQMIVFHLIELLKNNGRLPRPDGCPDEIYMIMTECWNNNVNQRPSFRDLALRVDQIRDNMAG
T3 sequence (P23458 849-1154): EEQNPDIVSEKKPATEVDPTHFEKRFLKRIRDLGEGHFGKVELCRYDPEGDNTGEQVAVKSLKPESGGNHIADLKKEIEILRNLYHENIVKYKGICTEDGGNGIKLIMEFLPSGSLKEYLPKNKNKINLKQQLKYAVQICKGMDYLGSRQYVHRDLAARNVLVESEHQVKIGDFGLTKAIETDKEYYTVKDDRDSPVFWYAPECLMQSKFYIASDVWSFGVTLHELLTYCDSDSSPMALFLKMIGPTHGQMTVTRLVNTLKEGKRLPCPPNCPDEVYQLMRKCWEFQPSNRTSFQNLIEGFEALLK
T2 sequence (P52333 781-1124): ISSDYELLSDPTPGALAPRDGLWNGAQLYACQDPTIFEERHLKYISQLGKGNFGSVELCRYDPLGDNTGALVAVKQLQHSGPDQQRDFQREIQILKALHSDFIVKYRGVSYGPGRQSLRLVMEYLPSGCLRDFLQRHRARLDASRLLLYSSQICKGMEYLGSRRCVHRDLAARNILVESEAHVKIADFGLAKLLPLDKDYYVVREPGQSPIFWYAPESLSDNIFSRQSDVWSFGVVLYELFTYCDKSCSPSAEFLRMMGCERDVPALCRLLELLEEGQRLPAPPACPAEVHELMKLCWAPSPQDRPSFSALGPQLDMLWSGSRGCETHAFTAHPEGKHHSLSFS
T4 sequence (Q9UM73 19-1620): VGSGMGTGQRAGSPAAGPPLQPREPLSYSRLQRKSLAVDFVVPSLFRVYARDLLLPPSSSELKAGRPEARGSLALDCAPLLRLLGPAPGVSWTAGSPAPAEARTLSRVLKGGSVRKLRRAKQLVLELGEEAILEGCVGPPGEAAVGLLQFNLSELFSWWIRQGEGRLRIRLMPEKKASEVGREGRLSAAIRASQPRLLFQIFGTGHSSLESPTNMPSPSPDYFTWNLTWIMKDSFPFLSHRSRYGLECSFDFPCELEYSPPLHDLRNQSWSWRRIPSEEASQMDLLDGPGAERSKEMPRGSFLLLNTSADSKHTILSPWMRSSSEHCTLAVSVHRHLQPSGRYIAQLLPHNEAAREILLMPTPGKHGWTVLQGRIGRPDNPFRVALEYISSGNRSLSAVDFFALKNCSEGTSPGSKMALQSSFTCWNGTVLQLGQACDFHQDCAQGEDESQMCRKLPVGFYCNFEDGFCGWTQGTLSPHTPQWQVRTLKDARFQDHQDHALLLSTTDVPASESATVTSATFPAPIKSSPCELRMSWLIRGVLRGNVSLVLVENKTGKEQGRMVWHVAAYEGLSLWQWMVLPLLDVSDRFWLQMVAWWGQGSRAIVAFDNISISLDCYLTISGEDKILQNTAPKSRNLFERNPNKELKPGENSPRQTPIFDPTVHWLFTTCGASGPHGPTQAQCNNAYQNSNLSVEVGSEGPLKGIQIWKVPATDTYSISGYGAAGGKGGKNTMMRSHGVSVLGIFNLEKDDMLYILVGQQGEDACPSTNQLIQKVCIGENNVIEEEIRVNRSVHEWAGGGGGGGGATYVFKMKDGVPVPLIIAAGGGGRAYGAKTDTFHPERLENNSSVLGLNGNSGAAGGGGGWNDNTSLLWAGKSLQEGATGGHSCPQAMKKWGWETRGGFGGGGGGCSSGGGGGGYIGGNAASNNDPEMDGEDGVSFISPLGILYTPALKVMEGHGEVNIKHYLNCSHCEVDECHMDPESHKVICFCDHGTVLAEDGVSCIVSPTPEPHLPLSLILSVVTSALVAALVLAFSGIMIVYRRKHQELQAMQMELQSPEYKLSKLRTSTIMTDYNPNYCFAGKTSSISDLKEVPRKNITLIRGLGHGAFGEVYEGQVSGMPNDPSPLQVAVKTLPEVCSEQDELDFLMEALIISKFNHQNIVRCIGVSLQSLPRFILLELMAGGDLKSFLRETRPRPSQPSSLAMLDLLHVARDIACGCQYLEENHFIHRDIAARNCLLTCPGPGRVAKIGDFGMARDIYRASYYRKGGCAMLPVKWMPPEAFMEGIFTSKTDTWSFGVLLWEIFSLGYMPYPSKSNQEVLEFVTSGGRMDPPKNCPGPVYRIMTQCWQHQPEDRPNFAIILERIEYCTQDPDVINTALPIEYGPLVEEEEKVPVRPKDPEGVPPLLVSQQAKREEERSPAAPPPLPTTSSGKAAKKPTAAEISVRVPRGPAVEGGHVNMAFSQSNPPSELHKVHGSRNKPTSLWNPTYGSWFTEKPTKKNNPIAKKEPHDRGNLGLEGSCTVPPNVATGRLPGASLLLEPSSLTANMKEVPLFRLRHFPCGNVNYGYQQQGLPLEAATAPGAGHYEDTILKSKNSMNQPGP
Chain of TYK2 (P29597 whole entry): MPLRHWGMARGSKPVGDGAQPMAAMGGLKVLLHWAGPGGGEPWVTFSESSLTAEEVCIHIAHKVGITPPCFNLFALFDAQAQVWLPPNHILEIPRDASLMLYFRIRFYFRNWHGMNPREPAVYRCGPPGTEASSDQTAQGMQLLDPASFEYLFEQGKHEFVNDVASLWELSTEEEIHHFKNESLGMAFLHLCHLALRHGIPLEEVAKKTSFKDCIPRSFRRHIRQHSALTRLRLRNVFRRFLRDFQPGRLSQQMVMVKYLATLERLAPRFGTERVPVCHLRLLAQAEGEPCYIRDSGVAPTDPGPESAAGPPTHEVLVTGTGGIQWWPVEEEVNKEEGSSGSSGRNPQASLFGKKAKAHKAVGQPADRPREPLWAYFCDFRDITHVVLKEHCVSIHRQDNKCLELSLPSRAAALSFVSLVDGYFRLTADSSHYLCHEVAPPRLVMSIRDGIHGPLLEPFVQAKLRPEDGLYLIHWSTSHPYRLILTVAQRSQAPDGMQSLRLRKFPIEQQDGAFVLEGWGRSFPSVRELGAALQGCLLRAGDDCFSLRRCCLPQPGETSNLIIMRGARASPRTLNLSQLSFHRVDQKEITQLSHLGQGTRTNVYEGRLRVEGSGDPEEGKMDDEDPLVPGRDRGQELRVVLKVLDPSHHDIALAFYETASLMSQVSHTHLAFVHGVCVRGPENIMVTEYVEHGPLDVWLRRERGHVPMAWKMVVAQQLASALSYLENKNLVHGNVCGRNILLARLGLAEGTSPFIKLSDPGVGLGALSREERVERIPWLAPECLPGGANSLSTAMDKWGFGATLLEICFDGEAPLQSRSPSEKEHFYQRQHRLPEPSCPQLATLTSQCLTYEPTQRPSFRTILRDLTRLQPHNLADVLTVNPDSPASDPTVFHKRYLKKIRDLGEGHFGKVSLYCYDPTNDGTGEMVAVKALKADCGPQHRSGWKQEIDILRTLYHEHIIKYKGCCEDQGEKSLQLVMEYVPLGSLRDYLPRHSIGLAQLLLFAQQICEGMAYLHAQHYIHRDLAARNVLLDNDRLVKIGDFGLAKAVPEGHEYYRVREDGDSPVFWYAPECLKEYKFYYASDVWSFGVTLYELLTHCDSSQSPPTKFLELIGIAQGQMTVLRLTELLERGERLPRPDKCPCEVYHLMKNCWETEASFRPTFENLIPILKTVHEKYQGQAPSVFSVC

Take `CN(C(=O)Nc1ccc2cc1CCc1cncc(c1)Nc1ncc(Cl)c(n1)N2)[C@H]1CCN(C(=O)c2ccccc2)C1` [Example B291, N-[(3S)-1-Benzoylpyrrolidin-3-yl]-N′-[6-chloro-2,4,8,18,22-pentaazatetracyclo[14.3.1.1(3,7).1(9,13)]docosa-1(20),3(22),4,6,9(21),10,12,16,18-nonaen-12-yl]-N-methylurea bis(trifluoroacetate)]: the 50% inhibitory concentration (IC50) in experiment [1] is 100 nM; in experiment [2] it was greater than 200 nM; at TYK2 it was 199 nM; in experiment [3], 28 nM. For the same compound, the “ALK % of inhibition at a concentration of 500 nM or 1 mM” value (“ALK % of inhibition” below) in experiment [4] turned out to be 58%.
As to `O=C(Nc1ccc2cc1CCc1cncc(c1)Nc1ncc(Cl)c(n1)N2)N1CCN(c2ccccc2)CC1` [Example B292, N-[6-Chloro-2,4,8,18,22-pentaazatetracyclo[14.3.1.1(3,7).1(9,13)]docosa-1(20),3(22),4,6,9(21),10,12,16,18-nonaen-12-yl]-4-phenylpiperazine-1-carboxamide tris(trifluoroacetate)], the IC50 was greater than 200 nM in experiment [1], greater than 200 nM in experiment [2], 100 nM on TYK2 and 32 nM in experiment [3]. Besides, the “ALK % of inhibition” value in experiment [4] was 68%.
For the compound `O=C(Nc1ccc2cc1CCc1cncc(c1)Nc1ncc(Cl)c(n1)N2)N1CCN(c2ccncc2)CC1` [Example B293, N-[6-Chloro-2,4,8,18,22-pentaazatetracyclo[14.3.1.1(3,7).1(9,13)]docosa-1(20),3(22),4,6,9(21),10,12,16,18-nonaen-12-yl]-4-pyridin-4-ylpiperazine-1-carboxamide tetrakis(trifluoroacetate)], the IC50 was greater than 200 nM in experiment [1], greater than 200 nM in experiment [2], 150 nM against TYK2 and 60 nM in experiment [3]. The “ALK % of inhibition” value in experiment [4] amounted to 45%.
For `O=C(Nc1ccc2cc1CCc1cncc(c1)Nc1ncc(Cl)c(n1)N2)N1CCN(c2cnccn2)CC1` [Example B294, N-[6-Chloro-2,4,8,18,22-pentaazatetracyclo[14.3.1.1(3,7).1(9,13)]docosa-1(20),3(22),4,6,9(21),10,12,16,18-nonaen-12-yl]-4-pyrazin-2-ylpiperazine-1-carboxamide tetrakis(trifluoroacetate)], the concentration for half-maximal inhibition (IC50) in experiment [1] was 150 nM; in experiment [2] it was greater than 200 nM; at TYK2, 85 nM; in experiment [3], 19 nM. Moreover, in experiment [4], the “ALK % of inhibition” value worked out at 54%.
The matching figures for `O=C(Nc1ccc2cc1CCc1cncc(c1)Nc1ncc(Cl)c(n1)N2)N1CCN(c2ccccc2F)CC1` [Example B295, N-[6-Chloro-2,4,8,18,22-pentaazatetracyclo[14.3.1.1(3,7).1(9,13)]docosa-1(20),3(22),4,6,9(21),10,12,16,18-nonaen-12-yl]-4-(2-fluorophenyl)piperazine-1-carboxamide tris(trifluoroacetate)]: 199 nM, greater than 200 nM, 150 nM, 30 nM and 50%.
Consider `O=C(c1coc(Nc2ccc3cc2CCc2cccc(c2)Nc2ncc(Cl)c(n2)N3)n1)N1CCN2CCCC2C1` (stereo not shown) [Example B296, 6-Chloro-N-[4-(hexahydropyrrolo[1,2-a]pyrazin-2(1H)-ylcarbonyl)-2,3-oxazol-2-yl]-2,4,8,22-tetraazatetracyclo[14.3.1.1(3,7).1(9,13)]docosa-1(20),3(22),4,6,9(21),10,12,16,18-nonaen-12-amine bis(trifluoroacetate)], for which the IC50 was 26 nM in experiment [1], greater than 200 nM in experiment [2], 48 nM at TYK2 and 8.3 nM in experiment [3]. The “ALK % of inhibition” value in experiment [4] came to 33%.
The matching figures for `O=C(Nc1ccc2cc1CCc1cncc(c1)Nc1ncc(Cl)c(n1)N2)N1CCN(c2ccc(F)cc2)CC1` [Example B297, N-[6-Chloro-2,4,8,18,22-pentaazatetracyclo[14.3.1.1(3,7).1(9,13)]docosa-1(20),3(22),4,6,9(21),10,12,16,18-nonaen-12-yl]-4-(4-fluorophenyl)piperazine-1-carboxamide tris(trifluoroacetate)]: 67 nM, greater than 400 nM, 36 nM, 27 nM and 66%.
The matching figures for `COc1ccccc1N1CCN(C(=O)Nc2ccc3cc2CCc2cncc(c2)Nc2ncc(Cl)c(n2)N3)CC1` [Example B298, N-[6-Chloro-2,4,8,18,22-pentaazatetracyclo[14.3.1.1(3,7).1(9,13)]docosa-1(20),3(22),4,6,9(21),10,12,16,18-nonaen-12-yl]-4-(2-methoxyphenyl)piperazine-1-carboxamide tris(trifluoroacetate)]: 341 nM, greater than 400 nM, 208 nM, 29 nM and 62%.
Turning to `COc1ccc(N2CCN(C(=O)Nc3ccc4cc3CCc3cncc(c3)Nc3ncc(Cl)c(n3)N4)CC2)cc1` [Example B299, N-[6-Chloro-2,4,8,18,22-pentaazatetracyclo[14.3.1.1(3,7).1(9,13)]docosa-1(20),3(22),4,6,9(21),10,12,16,18-nonaen-12-yl]-4-(4-methoxyphenyl)piperazine-1-carboxamide tris(trifluoroacetate)], the IC50 in experiment [1] was 180 nM; in experiment [2] it was greater than 400 nM; against TYK2, 82 nM; in experiment [3], 30 nM. Also, the “ALK % of inhibition” value in experiment [4] was 74%.
For `N#Cc1ccccc1N1CCN(C(=O)Nc2ccc3cc2CCc2cncc(c2)Nc2ncc(Cl)c(n2)N3)CC1` [Example B300, N-[6-Chloro-2,4,8,18,22-pentaazatetracyclo[14.3.1.1(3,7).1(9,13)]docosa-1(20),3(22),4,6,9(21),10,12,16,18-nonaen-12-yl]-4-(2-cyanophenyl)piperazine-1-carboxamide tris(trifluoroacetate)], the IC50 was 160 nM in experiment [1], greater than 400 nM in experiment [2], 27 nM against TYK2 and 16 nM in experiment [3]. Also, the “ALK % of inhibition” value in experiment [4] amounted to 77%.
Taken in the same sequence, the figures for `O=C(Nc1ccc2cc1CCc1cncc(c1)Nc1ncc(Cl)c(n1)N2)N1CCN(c2ccc(C(F)(F)F)cn2)CC1` [Example B301, N-[6-Chloro-2,4,8,18,22-pentaazatetracyclo[14.3.1.1(3,7).1(9,13)]docosa-1(20),3(22),4,6,9(21),10,12,16,18-nonaen-12-yl]-4-[5-(trifluoromethyl)pyridin-2-yl]piperazine-1-carboxamide tris(trifluoroacetate)] were greater than 400 nM, greater than 400 nM, 75 nM, 35 nM and 58%.
